Laboratory results as given in ChEMBL document CHEMBL1201862, “PubChem BioAssay data set” (2004).
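The compound was tested at five concentrations on cells cultured in 96-well plates, with a 48-hour exposure period. Here, GI50 denotes the concentration required for 50% inhibition of growth.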 The source made the active and inactive calls. No stated cut-off is given here; in the data, active = GI50 up to about 1.1 µM and inactive = higher.

Tests used:
Assay in all cases: NCI tumour cell line growth inhibition, 48 h
A549 = test system: A549
ACHN = test system: ACHN
CAKI-1 = test system: CAKI-1
EKVX = test system: EKVX
HCC 2998 = test system: HCC 2998
HT-29 = test system: HT-29
IGROV-1 = test system: IGROV-1
K562 = test system: K562
KM12 = test system: KM12
M14 = test system: M14
MOLT-4 = test system: MOLT-4
NCI-H460 = test system: NCI-H460
TK-10 = test system: TK-10
U-251 = test system: U-251
UACC-257 = test system: UACC-257
UACC-62 = test system: UACC-62

Compound | GI50 (A549) | GI50 (ACHN) | GI50 (CAKI-1) | GI50 (EKVX) | GI50 (HCC 2998) | GI50 (HT-29) | GI50 (IGROV-1) | GI50 (K562) | GI50 (KM12) | GI50 (M14) | GI50 (MOLT-4) | GI50 (NCI-H460) | GI50 (TK-10) | GI50 (U-251) | GI50 (UACC-257) | GI50 (UACC-62)
C=CCc1cc2cccc(OC)c2oc1=O | > 100 µM (inactive) | > 100 µM (inactive) | > 100 µM (inactive) | 44.3 µM (inactive) | > 100 µM (inactive) | > 100 µM (inactive) | > 100 µM (inactive) | 75.5 µM (inactive) | > 100 µM (inactive) | > 100 µM (inactive) | 63.4 µM (inactive) | > 100 µM (inactive) | > 100 µM (inactive) | > 100 µM (inactive) | > 100 µM (inactive) | > 100 µM (inactive)
C=C1C2CCCC1C1(S(C)(=O)=O)CCCCC21O (configuration not stated) | > 100 µM (inactive) | > 100 µM (inactive) | > 100 µM (inactive) | > 100 µM (inactive) | > 100 µM (inactive) | > 100 µM (inactive) | > 100 µM (inactive) | > 100 µM (inactive) | > 100 µM (inactive) | > 100 µM (inactive) | > 100 µM (inactive) | > 100 µM (inactive) | > 100 µM (inactive) | > 100 µM (inactive) | > 100 µM (inactive) | > 100 µM (inactive)
COC(=O)C(=Cc1cc(OC)ccc1OC)C(=O)OC | 31 µM (inactive) | 17.3 µM (inactive) | 18.9 µM (inactive) | 33.7 µM (inactive) | 19.1 µM (inactive) | 21.8 µM (inactive) | 25.5 µM (inactive) | 18 µM (inactive) | 20.6 µM (inactive) | 15.3 µM (inactive) | 27.4 µM (inactive) | 30.8 µM (inactive) | 36.3 µM (inactive) | 19.8 µM (inactive) | 14.1 µM (inactive) | 20.9 µM (inactive)
O=C1CCC2(c3ccccc3)Nc3ccccc3N12 (configuration not stated) | > 100 µM (inactive) | > 100 µM (inactive) | > 100 µM (inactive) | > 100 µM (inactive) | > 100 µM (inactive) | > 100 µM (inactive) | > 100 µM (inactive) | > 100 µM (inactive) | > 100 µM (inactive) | > 100 µM (inactive) | > 100 µM (inactive) | > 100 µM (inactive) | > 100 µM (inactive) | > 100 µM (inactive) | > 100 µM (inactive) | > 100 µM (inactive)
CC(C)c1cccc(C(C)C)c1NC(=O)/C(Cc1nc2ccc(Cl)cc2nc1O)=N\NC(=O)C[N+](C)(C)C | > 100 µM (inactive) | > 100 µM (inactive) | 95.7 µM (inactive) | 4.22 µM (inactive) | > 100 µM (inactive) | > 100 µM (inactive) | > 100 µM (inactive) | > 100 µM (inactive) | > 100 µM (inactive) | > 100 µM (inactive) | > 100 µM (inactive) | > 100 µM (inactive) | > 100 µM (inactive) |  | > 100 µM (inactive) | > 100 µM (inactive)
COC(=O)/N=C(\NC(=O)OC)Nc1ccc(Oc2ccccc2)cc1NC=O | 0.597 µM (active) | 0.881 µM (active) |  | 89.5 µM (inactive) | 0.968 µM (active) | 0.348 µM (active) | 1.62 µM (inactive) | 0.265 µM (active) | 0.466 µM (active) | 0.401 µM (active) | 0.836 µM (active) |  | 9.57 µM (inactive) | 0.333 µM (active) | 2.48 µM (inactive) | 0.573 µM (active)
C[C@]12Cc3cn[nH]c3C(=O)C1CC[C@@H]1C2CC[C@@]2(C)C1CC[C@@H]2O (some centres not stated) | > 100 µM (inactive) | > 100 µM (inactive) | > 100 µM (inactive) | > 100 µM (inactive) |  | > 100 µM (inactive) | > 100 µM (inactive) | > 100 µM (inactive) | > 100 µM (inactive) | > 100 µM (inactive) | > 100 µM (inactive) | > 100 µM (inactive) | > 100 µM (inactive) | > 100 µM (inactive) | > 100 µM (inactive) | > 100 µM (inactive)
COc1ccc(C)cc1-c1ccc(-c2cc(C)ccc2OC)o1 | > 100 µM (inactive) | > 100 µM (inactive) | > 100 µM (inactive) | > 100 µM (inactive) | > 100 µM (inactive) | > 100 µM (inactive) | > 100 µM (inactive) | > 100 µM (inactive) | > 100 µM (inactive) | > 100 µM (inactive) | > 100 µM (inactive) | > 100 µM (inactive) | > 100 µM (inactive) | > 100 µM (inactive) | > 100 µM (inactive) | > 100 µM (inactive)
CN1C[C@@H]2CC(=O)CC[C@@H]2C[C@H]1C#N | > 100 µM (inactive) | > 100 µM (inactive) | > 100 µM (inactive) |  | > 100 µM (inactive) | > 100 µM (inactive) | > 100 µM (inactive) | > 100 µM (inactive) | > 100 µM (inactive) | > 100 µM (inactive) | > 100 µM (inactive) | > 100 µM (inactive) |  |  | > 100 µM (inactive) | > 100 µM (inactive)
